In brackets after ≈: the same amount, converted by molar mass.
Columns and labels:
S. aureus UC 9213 = test: MIC by agar dilution against S. aureus UC 9213; assay type: cell-based; conditions: Staphylococcus aureus, UC9213, in vitro
Source text: (§1) The oxazolidinone antibacterial agents of this invention have useful activity against a variety of organisms. The in vitro activity of compounds of this invention can be assessed by standard testing procedures such as the determination of minimum inhibitory concentration (MIC) by agar dilution as described in "Approved Standard. Methods for Dilution Antimicrobial Susceptibility Tests for Bacteria That Grow Aerobically", 3rd. ed., published 1993 by the National Committee for Clinical Laboratory Standards, Villanova, Pa., USA.

H. influenzae 30063 = test: MIC by agar dilution against H. influenzae 30063; assay type: cell-based; conditions: Haemophilus influenzae, in vitro
Source text: as §1

human MAO A = target: T1, human MAO A (Homo sapiens, UniProt P21397); test: Continuous spectrophotometric assay of inhibitory activity to human MAO-A; assay type: biochemical; conditions: pH 7.3, 37° C., 80 μM substrate, 1% DMSO, 15 minutes pre-incubation; read-out: Ki, inhibition of human MAO A
T1 construct: Human placental MAO A is solubilized and purified as described; from tissue; host or cells: human placenta (enzyme supplied by Dr. Neal Castagnoli Jr's lab, Virginia Technical University)
T1 sequence (P21397 1-527): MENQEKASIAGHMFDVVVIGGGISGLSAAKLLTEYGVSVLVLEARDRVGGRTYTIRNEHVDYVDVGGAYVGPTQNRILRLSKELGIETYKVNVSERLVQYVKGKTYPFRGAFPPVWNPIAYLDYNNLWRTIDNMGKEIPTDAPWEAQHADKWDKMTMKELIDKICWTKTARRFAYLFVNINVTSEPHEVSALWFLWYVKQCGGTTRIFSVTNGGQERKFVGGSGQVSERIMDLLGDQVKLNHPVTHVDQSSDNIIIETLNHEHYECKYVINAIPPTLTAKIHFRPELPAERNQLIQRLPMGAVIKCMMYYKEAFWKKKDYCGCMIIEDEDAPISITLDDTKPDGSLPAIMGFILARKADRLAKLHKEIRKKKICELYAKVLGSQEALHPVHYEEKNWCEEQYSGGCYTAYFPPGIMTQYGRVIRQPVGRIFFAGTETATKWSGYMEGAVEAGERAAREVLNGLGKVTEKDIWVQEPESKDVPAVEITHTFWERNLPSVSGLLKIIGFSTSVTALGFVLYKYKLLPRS
Source text: The continuous spectrophotometric assay for measuring MAO activity is based on a colored oxidation product of the chromogenic substrate, 1-methyl-4-(1-methyl-2-pyrryl)-1,2,3,6-tetrahydropyridine, by MAO enzymes. The product is stable for many days at room temperature. The conversion of the substrate to the oxidation product is followed continuously from the moment of mixing of the MAO enzyme with the substrate and the initial reaction rate curve is directly observed. The bright yellow-green oxidation product has a peak absorption at 421 nm with a broad band that can be measured between 390 nm to 440 nm. Thus, the assay can be performed on the least sophisticated spectrophotometric equipment.
Human placental MAO A is solubilized and purified as described in N. Castagnoli Jr. et al., J. Med Chem. Vol. 39, pp. 4756-4761 (1996) and J. I. Salach et al., J. of Bio. Chem., Vol. 260, p. 13199 (1985). The human placental MAO A is obtained as a concentrated solution (5 nmols per ml). Bovine liver MAO B is purified as described N. Castagnoli Jr. et al., J. Med Chem., Vol. 39, pp. 4756-4761 (1996) and J. I. Salach et al., Methods Enzymol., Vol. 142, pp […] (1987). The bovine liver MAO B is obtained as a concentrated solution (8 nmols per ml). Working stocks of the enzyme solutions are made by 1/50 dilution of initial stocks into 50 mM sodium phosphate and optionally 10% glycerol. The solutions are kept on ice until final dilution into the assay. Alternatively, the frozen MAO enzymes may be diluted 800-3200 fold into the 50 mM sodium phosphate buffer immediately before use. This method is useful when screening a large number of oxazolidinones.
Oxazolidinones are prepared in DMSO at a concentration of 50 mM. Serial dilutions of the 50 mM stock solution are made in DMSO to form additional stock solutions ranging from […] to 0.3125 mM. The stock solutions are then frozen until use. The stocks are diluted 1/100 into the final enzyme assay volume at the time of assay.
Typically, the enzyme, along with an oxazolidinone inhibitor, are preincubated for approximately 15 minutes in the sodium phosphate buffer prior to assay. The reactions are started by addition of the substrate. Initial velocities are generally collected over an interval of one to sixty minutes.
The assay functions well in the spectrophotometer cuvette for evaluating single oxazolidinone's MAO inhibitory activity. The assay has also been successfully adapted to operate in high throughput microtiterplate format (i.e., 96, 384 and 1536 well plate readers). Hundreds of assays can be run simultaneously. Assay volumes are 250 μL and the wells have an effective path length of 0.75 cm. Generally, the final composition of the assay in the microtiterplate comprises […] sodium phosphate (pH=7.3), oxazolidinone having concentration ranging up to 500 μM, 1% DMSO, 80 μM substrate (MAO A) or 200 μM substrate (MAO B), and sufficient enzyme to produce an absorbance change from 0.0005 to 0.050 per minute at 421 nm. The reaction is run at 37° C., and rapid temperature equilibration of the assay solution is achieved by preincubating the plate and stock solutions at about 37° C. The reaction is followed by recording the increase in absorbance at 421 nm. The oxidation product has an extinction coefficient of 25,000 M^-1 cm^-1 at 420. See: N. Castagnoli Jr. et al., J. Med Chem., Vol. 39, pp. 4756-4761 (1996). Initial rates are determined by linear regression of the progress curves over an absorbance change of 0.06-0.12 at 421 nm. This range represents a substrate consumption of approximately 5% in the assay. The percentage inhibition of an oxazolidinone is determined from the following equation
In the above equation, the term "negative control" refers to a complete assay with 1% of DMSO but no MAO enzyme. The term "positive control" refers to a complete assay with 1% of DMSO but no inhibitor. The term "rate (I)" refers to the reaction rate under a complete assay conditions. […]

MIC (S. aureus UC 9213) | MIC (H. influenzae 30063) | Ki (human MAO A) | Structure (SMILES)
8 µg/mL (≈ 20.3 µM) | 16 µg/mL (≈ 40.6 µM) | 734 µM | O=C(NC[C@H]1CN(c2ccc([C@H]3CC[S@@+]([O-])CC3)c(F)c2)C(=O)O1)C1CC1 [Example 3, (-)-N-[[(5S)-3-[3-fluoro-4-(cis-tetrahydro-1-oxido-2H-thiopyran-4-yl)phenyl]-2-oxo-5-oxazolidinyl]methyl]cyclopropanecarboxamide]
1 µg/mL (≈ 2.29 µM) | 2 µg/mL (≈ 4.57 µM) | 396 µM | O=C(NC[C@H]1CN(c2ccc([C@H]3CC[S@+]([O-])CC3)c(F)c2)C(=O)O1)C(Cl)Cl [Example 9, (-)-2,2-dichloro-N-[[(5S)-3-[3-fluoro-4-(trans-tetrahydro-1-oxido-2H-thiopyran-4-yl)phenyl]-2-oxo-5-oxazolidinyl]methyl]acetamide]
8 µg/mL (≈ 20.9 µM) | 16 µg/mL (≈ 41.8 µM) | > 3000 µM | CCC(=O)NC[C@H]1CN(c2ccc([C@H]3CC[S@@+]([O-])CC3)c(F)c2)C(=O)O1 [Example 2, (-)-N-[[(5S)-3-[3-fluoro-4-(cis-tetrahydro-1-oxido-2H-thiopyran-4-yl)phenyl]-2-oxo-5-oxazolidinyl]methyl]propanamide]
4 µg/mL (≈ 10.5 µM) | 4 µg/mL (≈ 10.5 µM) | 905 µM | CCC(=O)NC[C@H]1CN(c2ccc([C@H]3CC[S@+]([O-])CC3)c(F)c2)C(=O)O1 [Example 7, (-)-N-[[(5S)-3-[3-fluoro-4-(trans-tetrahydro-1-oxido-2H-thiopyran-4-yl)phenyl]-2-oxo-5-oxazolidinyl]methyl]propanamide]
8 µg/mL (≈ 20.3 µM) | 16 µg/mL (≈ 40.6 µM) | > 3000 µM | O=C(NC[C@H]1CN(c2ccc([C@H]3CC[S@+]([O-])CC3)c(F)c2)C(=O)O1)C1CC1 [Example 8, (-)-N-[[(5S)-3-[3-fluoro-4-(trans-tetrahydro-1-oxido-2H-thiopyran-4-yl)phenyl]-2-oxo-5-oxazolidinyl]methyl]cyclopropanecarboxamide]
2 µg/mL (≈ 4.41 µM) | 2 µg/mL (≈ 4.41 µM) | > 3000 µM | O=C(NC[C@H]1CN(c2ccc(C3CCS(=O)(=O)CC3)c(F)c2)C(=O)O1)C(Cl)Cl [Example 6, (-)-2,2-dichloro-N-[[(5S)-3-[3-fluoro-4-(tetrahydro-1,1-dioxido-2H-thiopyran-4-yl)phenyl]-2-oxo-5-oxazolidinyl]methyl]acetamide]
2 µg/mL (≈ 4.57 µM) | 8 µg/mL (≈ 18.3 µM) | 2570 µM | O=C(NC[C@H]1CN(c2ccc([C@H]3CC[S@@+]([O-])CC3)c(F)c2)C(=O)O1)C(Cl)Cl [Example 4, (-)-2,2-Dichloro-N-[[(5S)-3-[3-fluoro-4-(cis-tetrahydro-1-oxido-2H-thiopyran-4-yl)phenyl]-2-oxo-5-oxazolidinyl]methyl]acetamide]
4 µg/mL (≈ 10 µM) | 8 µg/mL (≈ 20.1 µM) | 3000 µM | CCC(=O)NC[C@H]1CN(c2ccc(C3CCS(=O)(=O)CC3)c(F)c2)C(=O)O1 [Example 5, (-)-N-[[(5S)-3-[3-fluoro-4-(tetrahydro-1,1-dioxido-2H-thiopyran-4-yl)phenyl]-2-oxo-5-oxazolidinyl]methyl]propanamide]
4 µg/mL (≈ 10.9 µM) | 8 µg/mL (≈ 21.7 µM) | 648 µM | CC(=O)NC[C@H]1CN(c2ccc([C@H]3CC[S@@+]([O-])CC3)c(F)c2)C(=O)O1 [Example 1, (-)-N-[[(5S)-3-[3-fluoro-4-(cis-tetrahydro-1-oxido-2H-thiopyran-4-yl)phenyl]-2-oxo-5-oxazolidinyl]methyl]acetamide]
